Reference: publication PMC10487625, “Betaxolol as a Potent Inhibitor of NDM-1-Positive E. coli That Synergistically Enhances the Anti-Inflammatory Effect in Combination with Meropenem” (International Journal of Molecular Sciences, 2023)

Target: T1, New Delhi metallo-β-lactamase (NDM-1) (Escherichia coli, UniProt E5KIY2)
T1 construct: gene blaNDM-1; recombinant NDM-1 purified from E. coli BL21(DE3)-pET-32a(+)-blaNDM-1
Assay: nitrocefin hydrolysis assay with purified NDM-1, OD492
Type: biochemical

T1 sequence (E5KIY2 29-270 limits assumed): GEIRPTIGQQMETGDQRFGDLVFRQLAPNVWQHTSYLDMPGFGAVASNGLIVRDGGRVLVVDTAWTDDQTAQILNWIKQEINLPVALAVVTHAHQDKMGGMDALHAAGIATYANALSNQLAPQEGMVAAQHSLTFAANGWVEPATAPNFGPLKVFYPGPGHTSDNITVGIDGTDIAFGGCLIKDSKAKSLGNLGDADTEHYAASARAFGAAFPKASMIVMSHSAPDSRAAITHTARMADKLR

## CC(C)NCC(O)COc1ccc(CCOCC2CC2)cc1 (stereo not shown) [BET, betaxolol]
  IC50: 19.3 ± 0.9 µM
